Measurements reported in patent publication US20230321101A1, “METHODS AND USES OF HALOFUGINONE” (The Regents of the University of California, priority 2020, published 2023).
Read-outs that look alike come from different tables or passages of the source.

Columns and labels:
[1] = tested on: SARS-CoV-2 spike protein pseudotyped VSV; assay type: cell-based
[2] = tested on: authentic SARS-CoV-2; assay type: cell-based
[3] = tested on: DENV-2 (Dengue); assay: DENV-2 antiviral immunofluorescence assay in Huh7 cells; assay type: cell-based; details: Dengue virus, DENV2, Huh-7, read-out: EC50 DENV-2
Method: Experimental Procedure. The antiviral activity of 8 dilutions of each compound was explored by adding the drug to the assay cells 2 h after infection with the different viruses. Virus and compounds were left on the cells for the entire duration of the experiment (28 h for Zika virus and 24 h for all other viruses). The cytotoxicity of the same range of concentrations of compounds was determined by LDH release assay in the same cell lines.
Cell plating. Cells were detached and counted following SOP-RA 003 and SOP-RA 004. Count was recorded in the Cell Count Logbook, Volume 1. For each virus four plates were seeded, two for the antiviral assay and two for the cytotoxicity assay. Cells were seeded in 100 μl/well of complete media at the following densities: • Huh7: 8,000 cells/well (Dengue) • SH-SY5Y: 10,000 cells/wells (Zika) • HeLa Tzmbl: 8,000 cells/well (HIV)
Compounds dilutions. The 22.1 mM stocks were further diluted to 1 mM in DMSO by adding 211 μl of DMSO to 10 μl of compound. Three serial dilutions were prepared in different media for different viruses/cells. For each dilution, drugs were prepared at twice the final concentration in 50 μl volume, because they are diluted to the final concentration by an equal volume of virus or media.
Infection. Cells were infected in 50 μl of supplemented media/well at the following multiplicity of infection (MOI): • DENV-2, MOI 1 • ZIKV, MOI 5 • HIV, MOI 0.5
After removing culture media from cells, 50 μl of virus dilution were added to all wells except Column 11 (uninfected control), where the same volume of supplemented media was added. […]
Infectivity readout. […] The primary antibodies were detected with an Alexa-488 conjugate secondary antibody (Life Technologies, A11001), and nuclei were stained with Hoechst. Images were acquired on a CellInsight CX5 high content platform (Thermo Scientific) using a 4× objective, and percentage infection calculated using CellInsight CX5 software (infected cells/total cells×100).
Determination of % Inhibition—IF assay. Normalized percentages of inhibition were calculated using the following formula: […]

[4] = tested on: hepcidin expression; assay: Hepcidin expression in the mouse liver upon iron loading; assay type: in vivo; details: mice, 1 μg per mouse per day for 8 days, iron-rich diet (8.3 g/kg) for 7 days
Method: FIG. 10. […] Mice treated with Halofuginone for 8 days, 1 μg per mouse per day. Mice were either on normal iron-balanced chow (0.2 g/kg) or iron-rich diet (8.3 g/kg) for 7 days in conjunction with the treatment.

[5] = tested on: recombinant SARS-CoV-2 spike RBD protein binding to Caco-2 cells

O=C(CC1NCCCC1O)Cn1cnc2cc(Br)c(Cl)cc2c1=O (racemic) [halofuginone]
inhibition of pseudotyped VSV infection [1]: about 30 fold
number of SARS-CoV-2 infected cells ([2]; at both 10 nM and 100 nM): significantly reduced the number of SARS-CoV-2 infected cells
inhibition of SARS-CoV-2 ([2]; different halofuginone doses): complete inhibition of SARS-CoV-2
EC50 [3]: 35.4 nM
hepcidin expression in the liver [4]: reduces hepcidin expression in the mouse liver
effect on spike (RBD) protein binding [5]: dose-dependently inhibited spike protein binding
effect on spike (RBD) protein binding ([5]; listed as Halofuginone): reduced spike RBD protein binding
